Results published in patent US20220411419A1, “SMALL MOLECULE MODULATORS OF MHC-I” (RetroVirox, Inc., priority 2018, published 2022).

Assays:
[1] = system: downmodulation of MHC-I molecules expressed on the surface of HIV infected SupT1 cells; experiment: cells; details: for EC50: Human immunodeficiency virus 1, SUP-T1, read-out: EC50 for inhibition of MHC-I downmodulation utilizing the R1 parameter; for activity at 100 µM: Human immunodeficiency virus 1, SUP-T1, read-out: R1 @ 100 μM (R1 value for MHC-I downmodulation as % of the vehicle control)
[2] = in vitro; details: human, uninfected SupT1 cells

| Compound | EC50 [1] | CC50 at 48 h [2] | activity at 100 µM [1] | CC50 [2] |
| --- | --- | --- | --- | --- |
| CC1(C)Cc2cccc(OCC(=O)Nc3nc4c(F)cccc4s3)c2O1 [Compound 147, 2-((2,2-Dimethyl-2,3-dihydrobenzofuran-7-yl)oxy)-N-(4-fluorobenzo[d]thiazol-2-yl)acetamide] | 0.09 µM | > 90 µM | – | – |
| CC1(C)Cc2cccc(OCC(=O)Nc3nc4cc(F)ccc4s3)c2O1 [Compound 148, 2-((2,2-Dimethyl-2,3-dihydrobenzofuran-7-yl)oxy)-N-(5-fluorobenzo[d]thiazol-2-yl)acetamide] | 2 µM | > 100 µM | – | – |
| CC1(C)Cc2cccc(OCC(=O)Nc3nc4ccc(OC(F)(F)F)cc4s3)c2O1 [Compound 149, 2-((2,2-Dimethyl-2,3-dihydrobenzofuran-7-yl)oxy)-N-(6-(trifluoromethoxy)benzo[d]thiazol-2-yl)acetamide] | > 25 µM | > 100 µM | 27% | > 100 µM |
| CC1(C)Cc2cccc(OCC(=O)Nc3nc(C(=O)N4CCCC4)cs3)c2O1 [Compound 150, 2-((2,2-dimethyl-2,3-dihydrobenzofuran-7-yl)oxy)-N-(4-(pyrrolidine-1-carbonyl)thiazol-2-yl)acetamide] | > 25 µM | > 90 µM | 47% | > 90 µM |
| CC1(C)Cc2cccc(OCC(=O)Nc3nc(C(=O)N4CCCCC4)cs3)c2O1 [Compound 151, 2-((2,2-Dimethyl-2,3-dihydrobenzofuran-7-yl)oxy)-N-(4-(piperidine-1-carbonyl)thiazol-2-yl)acetamide] | > 25 µM | > 90 µM | 51% | > 90 µM |
| CC1(C)Cc2cccc(OCC(=O)Nc3nc(C(=O)N4CC[C@H](CO)C4)cs3)c2O1 [Compound 152, (S)-2-((2,2-Dimethyl-2,3-dihydrobenzofuran-7-yl)oxy)-N-(4-(3-(hydroxymethyl)pyrrolidine-1-carbonyl)thiazol-2-yl)acetamide] | > 25 µM | > 90 µM | 54% | > 90 µM |
| CC1(C)Cc2cccc(OCC(=O)Nc3nc(C(=O)N4CC(CO)C4)cs3)c2O1 [Compound 153, 2-((2,2-Dimethyl-2,3-dihydrobenzofuran-7-yl)oxy)-N-(4-(3-(hydroxymethyl)azetidine-1-carbonyl)thiazol-2-yl)acetamide] | > 25 µM | > 90 µM | 39% | > 90 µM |
| CC1(C)Cc2cccc(OCC(=O)Nc3nc(C(=O)NCc4ccco4)cs3)c2O1 [Compound 154, 2-(2-((2,2-Dimethyl-2,3-dihydrobenzofuran-7-yl)oxy)acetamido)-N-(furan-2-ylmethyl)thiazole-4-carboxamide] | > 25 µM | > 100 µM | 44% | > 100 µM |
| CC(C)(C)OC(=O)N1CCC(CNC(=O)c2csc(NC(=O)COc3cccc4c3OC(C)(C)C4)n2)C1 (centres unmarked) [Compound 155, tert-Butyl 3-((2-(2-((2,2-dimethyl-2,3-dihydrobenzofuran-7-yl)oxy)acetamido)thiazole-4-carboxamido)methyl)pyrrolidine-1-carboxylate] | > 25 µM | > 90 µM | ≥ 100% | > 90 µM |
| CC1(C)Cc2cccc(OCC(=O)Nc3nc(C(=O)NCC4CCNC4)cs3)c2O1 (centres unmarked) [Compound 156, 2-(2-((2,2-dimethyl-2,3-dihydrobenzofuran-7-yl)oxy)acetamido)-N-(pyrrolidin-3-ylmethyl)thiazole-4-carboxamide] | > 25 µM | > 90 µM | 40% | > 90 µM |
| CC(C)(C)OC(=O)N1CCC(CNC(=O)c2cnc(NC(=O)COc3cccc4c3OC(C)(C)C4)s2)C1 (centres unmarked) [Compound 157, tert-Butyl 3-((2-(2-((2,2-dimethyl-2,3-dihydrobenzofuran-7-yl)oxy)acetamido)thiazole-5-carboxamido)methyl)pyrrolidine-1-carboxylate] | > 25 µM | > 90 µM | ≥ 100% | > 90 µM |
| CCc1cccc(NC(=O)COc2cccc3c2OC(C)(C)C3)n1 [Compound 158, 2-((2,2-Dimethyl-2,3-dihydrobenzofuran-7-yl)oxy)-N-(6-ethylpyridin-2-yl) acetamide] | 13 µM | > 125 µM | – | – |
| Cc1csc(N(Cc2ccccc2)C(=O)COc2cccc3c2OC(C)(C)C3)n1 [Compound 159, N-Benzyl-2-((2,2-dimethyl-2,3-dihydrobenzofuran-7-yl)oxy)-N-(4-methylthiazol-2-yl)acetamide] | 0.18 µM | > 90 µM | – | – |
| CN(C(=O)COc1ccccc1C(F)(F)F)c1nc2c(s1)CCCC2 [Compound 160, N-Methyl-N-(4,5,6,7-tetrahydrobenzo[d]thiazol-2-yl)-2-(2-(trifluoromethyl)phenoxy)acetamide] | 0.28 µM | > 125 µM | – | – |
| CN(C(=O)COc1ccccc1OC(F)(F)F)c1nc2c(s1)CCCC2 [Compound 161, N-Methyl-N-(4,5,6,7-tetrahydrobenzo[d]thiazol-2-yl)-2-(2-(trifluoromethoxy)phenoxy)acetamide] | 0.15 µM | > 125 µM | – | – |
| CN(C(=O)COc1cccc2c1OC(C)(C)C2)c1nc2c(s1)CCC2 [Compound 162, N-(5,6-Dihydro-4H-cyclopenta[d]thiazol-2-yl)-2-((2,2-dimethyl-2,3-dihydrobenzofuran-7-yl)oxy)-N-methylacetamide] | 0.027 µM | 124 µM | – | – |

| Compound | EC50 [1] | CC50 at 48 h [2] | activity at 100 µM [1] | CC50 [2] |
| --- | --- | --- | --- | --- |
| CC1(C)Cc2cccc(OCC(=O)Nc3ccc4c(n3)CCC4)c2O1 [Compound 163, N-(6,7-dihydro-5H-cyclopenta[b]pyridin-2-yl)-2-((2,2-dimethyl-2,3-dihydrobenzofuran-7-yl)oxy)acetamide] | 0.37 µM | > 125 µM | – | – |
| CC1(C)Cc2cccc(OCC(=O)Nc3nc4c(s3)COCC4)c2O1 [Compound 175, N-(6,7-Dihydro-4H-pyrano[4,3-d]thiazol-2-yl)-2-((2,2-dimethyl-2,3-dihydrobenzofuran-7-yl)oxy)acetamide] | 1.2 µM | 10 µM | – | – |
| O=C(COc1cccc2c1OCCO2)Nc1nc2ccccc2s1 [Compound 176, N-(Benzo[d]thiazol-2-yl)-2-((2,3-dihydrobenzo[b][1,4]dioxin-5-yl)oxy) acetamide] | 8.9 µM | > 100 µM | – | – |
| Cc1ccc(NC(=O)COc2cccc3c2OC(C)(C)C3)nc1 [Compound 177, 2-((2,2-Dimethyl-2,3-dihydrobenzofuran-7-yl)oxy)-N-(5-methylpyridin-2-yl) acetamide] | 0.24 µM | > 100 µM | – | – |
| CC1(C)Cc2cccc(OCC(=O)Nc3cccc4cccnc34)c2O1 [Compound 178, 2-((2,2-Dimethyl-2,3-dihydrobenzofuran-7-yl)oxy)-N-(quinolin-8-yl) acetamide] | > 25 µM | > 25 µM | 20% | > 25 µM |
| Cc1ccnc(NC(=O)COc2cccc3c2OC(C)(C)C3)n1 [Compound 179, 2-((2,2-Dimethyl-2,3-dihydrobenzofuran-7-yl)oxy)-N-(4-methylpyrimidin-2-yl)acetamide] | > 25 µM | > 100 µM | – | – |
| Cc1csc(N(C(=O)COc2cccc3c2OC(C)(C)C3)c2ccccc2)n1 [Compound 180, 2-((2,2-Dimethyl-2,3-dihydrobenzofuran-7-yl)oxy)-N-(4-methylthiazol-2-yl)-N-phenylacetamide] | 0.028 µM | > 100 µM | – | – |
| Cc1csc(NC(=O)COc2cccc3c2OC(C)(C)C3)n1 [Compound 181, 2-((2,2-Dimethyl-2,3-dihydrobenzofuran-7-yl)oxy)-N-(4-methylthiazol-2-yl) acetamide] | 0.62 µM | > 90 µM | – | – |
| Cc1cnc(NC(=O)COc2cccc3c2OC(C)(C)C3)s1 [Compound 182, 2-((2,2-Dimethyl-2,3-dihydrobenzofuran-7-yl)oxy)-N-(5-methylthiazol-2-yl) acetamide] | 0.37 µM | 69 µM | – | – |
| CC1(C)Cc2cccc(OCC(=O)Nc3nc4ccc(F)cc4s3)c2O1 [Compound 183, 2-((2,2-Dimethyl-2,3-dihydrobenzofuran-7-yl)oxy)-N-(6-fluorobenzo[d]thiazol-2-yl)acetamide] | 4.2 µM | > 100 µM | – | – |
| Cc1cccc2sc(NC(=O)COc3cccc4c3OC(C)(C)C4)nc12 [Compound 184, 2-((2,2-Dimethyl-2,3-dihydrobenzofuran-7-yl)oxy)-N-(4-methylbenzo[d]thiazol-2-yl)acetamide] | 3.3 µM | > 90 µM | – | – |
| Cc1nc(NC(=O)COc2cccc3c2OC(C)(C)C3)sc1C [Compound 185, 2-((2,2-Dimethyl-2,3-dihydrobenzofuran-7-yl)oxy)-N-(4,5-dimethylthiazol-2-yl)acetamide] | 0.2 µM | > 90 µM | – | – |
| COc1ccccc1OCC(=O)Nc1nc(C)c(C)s1 [Compound 186, N-(4,5-Dimethylthiazol-2-yl)-2-(2-methoxyphenoxy)acetamide] | ≥ 25 µM | > 100 µM | 18% | > 100 µM |
| COc1ccccc1OCC(=O)Nc1nc2ccccc2s1 [Compound 187, N-(Benzo[d]thiazol-2-yl)-2-(2-methoxyphenoxy)acetamide] | ≥ 25 µM | > 100 µM | 45% | > 100 µM |
| COc1ccccc1OCC(=O)Nc1nc2c(Cl)cccc2s1 [Compound 188, N-(4-Chlorobenzo[d]thiazol-2-yl)-2-(2-methoxyphenoxy)acetamide] | ≥ 10 µM | > 100 µM | 37% | > 100 µM |
| COc1ccccc1OCC(=O)Nc1nc2c(C)cccc2s1 [Compound 189, 2-(2-Methoxyphenoxy)-N-(4-methylbenzo[d]thiazol-2-yl)acetamide] | > 25 µM | > 100 µM | 39% | > 100 µM |
